Assay results as given in patent US8399381B2, “Condensed heterocyclic sulfonyl urea compound, a herbicide containing the same, and a method for weed control using the same” (Sumitomo Chemical Company, Limited, priority 2002, dated 2013).

Key:
[1] = system: sulfonylurea herbicide-sensitive Lindernia dubia subsp. major Pennell; assay: Paddy pot weeding test, flooded, two-leaf stage (Test Example 1); type: in vivo; details: 1 g/are, three weeks after treatment, sensitive biotype, Makabe Town, Ibaraki Pref.
Description: (§1) A 5 cm×5 cm Jiffy Pot™ was charged with paddy soil, then water was introduced into each pot, seeds of sulfonylurea herbicide-sensitive Scirpus juncoides var. ohwianus, sulfonylurea herbicide-sensitive Lindernia procumbens (Krock.) Philcox, sulfonylurea herbicide-sensitive Lindernia dubia subsp. major Pennell, sulfonylurea herbicide-resistant Scirpus juncoides var. ohwianus, sulfonylurea herbicide-resistant Lindernia procumbens (Krock.) Philcox and sulfonylurea herbicide-resistant Lindernia dubia subsp. major Pennell were sowed therein and cultivated for a prescribed period under flooding conditions. When the plants reached the two-leave stage, the prescribed number of Jiffy Pots where the plants had been grown were transferred to a 150-cm^2 rectangular plastic pot, and water was introduced to a height of 3 cm, and a chemical diluent containing a compound was applied into the pot in an amount of 1 g/are. The chemical diluent was prepared by dissolving 1.5 g compound in 2 L of N,N-dimethylformamide (DMF) containing, 2% (W/V) surfactant Tween™ 20 and then diluting it with water to adjust the total volume to 10 L.

[2] = system: sulfonylurea herbicide-resistant Scirpus juncoides var. ohwianus; assay: as above; type: in vivo; details: 1 g/are, three weeks after treatment, resistant biotype, Iwamisawa City, Hokkaido
Description: as §1

[3] = system: sulfonylurea herbicide-resistant Lindernia dubia subsp. major Pennell; assay: as above; type: in vivo; details: 1 g/are, three weeks after treatment, resistant biotype, Kawanishi Town, Yamagata Pref.
Description: as §1

[4] = system: sulfonylurea herbicide-resistant Lindernia procumbens (Krock.) Philcox; assay: as above; type: in vivo; details: 1 g/are, three weeks after treatment, resistant biotype, Tajiri Town, Miyagi Pref.
Description: as §1

[5] = system: sulfonylurea herbicide-sensitive Scirpus juncoides var. ohwianus; assay: as above; type: in vivo; details: 1 g/are, three weeks after treatment, sensitive biotype, Kyoto Pref.
Description: as §1

[6] = system: sulfonylurea herbicide-sensitive Lindernia procumbens (Krock.) Philcox; assay: as above; type: in vivo; details: 1 g/are, three weeks after treatment, sensitive biotype, Kyoto Pref.
Description: as §1

SMILES | S Lindernia dubia subsp. major Pennell (effect index) [1] | R Scirpus juncoides var. ohwianus (effect index) [2] | R Lindernia dubia subsp. major Pennell (effect index) [3] | R Lindernia procumbens (Krock.) Philcox (effect index) [4] | S Scirpus juncoides var. ohwianus (effect index) [5] | S Lindernia procumbens (Krock.) Philcox (effect index) [6] | melting point
CCNc1ccc2nc(Cl)c(NC(=O)NS(=O)(=O)c3nc(OC)cc(OC)n3)n2n1 [Compound No. 3] | 5 (excellent 81 to 100) | 5 (excellent 81 to 100) | 5 (excellent 81 to 100) | 5 (excellent 81 to 100) | 5 (excellent 81 to 100) | 5 (excellent 81 to 100) | 169 to 171 °C
CCc1nc2ccc(N(C)C)nn2c1NC(=O)NS(=O)(=O)c1nc(OC)cc(OC)n1 [Compound No. 4] | 5 (excellent 81 to 100) | 5 (excellent 81 to 100) | 5 (excellent 81 to 100) | 3 (moderate 41 to 60) | 5 (excellent 81 to 100) | 5 (excellent 81 to 100) | 174 to 176 °C
CCSc1ccc2nc(CC)c(S(=O)(=O)NC(=O)Nc3nc(OC)cc(OC)n3)n2n1 [Compound No. 7, 1-(4,6-dimethoxypyrimidin-2-yl)-3-(2-ethyl-6-ethylthioimidazo[1,2-b]pyridazin-3-ylsulfonyl)urea] | 5 (excellent 81 to 100) | 5 (excellent 81 to 100) | 4 (high 61 to 80) | 3 (moderate 41 to 60) | 5 (excellent 81 to 100) | 5 (excellent 81 to 100) | 160 to 165 °C (dec.)
CCc1nc2ccc(SC)nn2c1NC(=O)NS(=O)(=O)c1nc(OC)cc(OC)n1 [Compound No. 8] | 5 (excellent 81 to 100) | 5 (excellent 81 to 100) | 5 (excellent 81 to 100) | 5 (excellent 81 to 100) | 5 (excellent 81 to 100) | 5 (excellent 81 to 100) | 146 to 148 °C
CCc1nc2ccc(S(C)(=O)=O)nn2c1NC(=O)NS(=O)(=O)c1nc(OC)cc(OC)n1 [Compound No. 9] | 5 (excellent 81 to 100) | 5 (excellent 81 to 100) | 5 (excellent 81 to 100) | 3 (moderate 41 to 60) | 5 (excellent 81 to 100) | 5 (excellent 81 to 100) | 206 to 208 °C
COc1cc(OC)nc(S(=O)(=O)NC(=O)Nc2c(C(F)(F)F)nc3ccc(SC)nn23)n1 [Compound No. 12] | 5 (excellent 81 to 100) | 5 (excellent 81 to 100) | 5 (excellent 81 to 100) | 3 (moderate 41 to 60) | 5 (excellent 81 to 100) | 5 (excellent 81 to 100) | 266 to 267 °C
CCc1ccc2nc(C)c(S(=O)(=O)NC(=O)Nc3nc(OC)cc(OC)n3)n2n1 [Compound No. 13, 1-(4,6-dimethoxypyrimidin-2-yl)-3-(6-ethyl-2-methylimidazo[1,2-b]pyridazin-3-ylsulfonyl)urea] | 5 (excellent 81 to 100) | 5 (excellent 81 to 100) | 5 (excellent 81 to 100) | 5 (excellent 81 to 100) | 5 (excellent 81 to 100) | 5 (excellent 81 to 100) | 172 to 174 °C
COc1cc(OC)nc(S(=O)(=O)NC(=O)Nc2c(C)nc3ccc(N(C)C)nn23)n1 [Compound No. 14] | 5 (excellent 81 to 100) | 5 (excellent 81 to 100) | 4 (high 61 to 80) | 3 (moderate 41 to 60) | 5 (excellent 81 to 100) | 5 (excellent 81 to 100) | 183 to 185 °C (dec.)
CCOc1ccc2nc(C)c(NC(=O)NS(=O)(=O)c3nc(OC)cc(OC)n3)n2n1 [Compound No. 16] | 5 (excellent 81 to 100) | 5 (excellent 81 to 100) | 5 (excellent 81 to 100) | 4 (high 61 to 80) | 5 (excellent 81 to 100) | 5 (excellent 81 to 100) | 168 to 170 °C (dec.)
CCSc1ccc2nc(C)c(NC(=O)NS(=O)(=O)c3nc(OC)cc(OC)n3)n2n1 [Compound No. 18] | 5 (excellent 81 to 100) | 5 (excellent 81 to 100) | 5 (excellent 81 to 100) | 5 (excellent 81 to 100) | 5 (excellent 81 to 100) | 5 (excellent 81 to 100) | 163 to 165 °C
COc1cc(OC)nc(S(=O)(=O)NC(=O)Nc2c(C)nc3ccc(SC)nn23)n1 [Compound No. 19] | 5 (excellent 81 to 100) | 5 (excellent 81 to 100) | 4 (high 61 to 80) | 5 (excellent 81 to 100) | 5 (excellent 81 to 100) | 5 (excellent 81 to 100) | 178 to 180 °C (dec.)
CCCCc1ccc2nc(Cl)c(S(=O)(=O)NC(=O)Nc3nc(OC)cc(OC)n3)n2n1 [Compound No. 41] | 5 (excellent 81 to 100) | 5 (excellent 81 to 100) | 5 (excellent 81 to 100) | 4 (high 61 to 80) | 5 (excellent 81 to 100) | 5 (excellent 81 to 100) | –
COc1cc(OC)nc(NC(=O)NS(=O)(=O)c2c(C)nc3cccnn23)n1 [comparison 1, reference compound] | 5 (excellent 81 to 100) | 2 (slight 21 to 40) | 1 (very slight 1 to 20) | 0 (none 0) | 5 (excellent 81 to 100) | 5 (excellent 81 to 100) | –
COc1cc(OC)nc(NC(=O)NS(=O)(=O)c2c(Cl)nc3cccnn23)n1 [comparison 2, reference compound] | 5 (excellent 81 to 100) | 0 (none 0) | 0 (none 0) | 0 (none 0) | 5 (excellent 81 to 100) | 5 (excellent 81 to 100) | –
